What all share (format): in vivo
Assay [1] deals with macrophages having infiltrated the islets of Langerhans. Description: Test Example 1: fluorescence localisation in frozen pancreatic sections after i.v. administration to BB rats with onset of IDDM. The note with it: 5 mg/kg via tail vein, pancreas excised 1 hour after administration, 664 nm laser (same result with 405 nm UV / 672 nm fluorescence). From the text: From 60 days after birth, the BB rats were examined every day for the urine sugar level and blood sugar level by using GLUTEST SENSOR (Sanwa Kagaku Co., Ltd., Japan). […] The excised pancreases were frozen in dry ice/acetone, to prepare frozen pancreatic sections of 5 μm in thickness. The frozen pancreatic sections were irradiated with a semiconductor laser light of 664 nm (Matsushita Industrial Equipment Co., Ltd., Japan). An image of fluorescence as emitted by mono-L-aspartyl chlorin e6 in the frozen pancreatic section was observed under a fluorescence microscope equipped with a notched filter for cutting 664 nm wavelength (made by Carl Zeiss). […]
Further, the places of the pancreas section which indicated the previously observed fluorescence of mono-L-aspartyl chlorin e6 were confirmed to be consistent with the sites where the macrophages were present in the pancreas sections. […] When a method comprising irradiation of a UV ray of a wavelength of 405 nm and observing a fluorescence at 672 nm with a cut filter for cutting light rays of wavelengths of not more than 600 nm was used for the observation of the fluorescence of mono-L-aspartyl chlorin e6, there could again be obtained the same result as that obtained in the above-described method comprising irradiation of the 664-nm semiconductor laser.

Assay [2] relates to BB rats with onset of IDDM. Description: Test Example 3: photodynamic therapy of IDDM in BB rats (664-nm laser light), survival rate. On the procedure:
From 60 days after birth, BB rats (16 rats per group) were examined every day for the urine sugar level and blood sugar level, to confirm the time of the onset of IDDM. […] Photodynamic therapy of IDDM was thus conducted once, and thereafter, the survival rate (%) of the BB rats were evaluated during the breeding for subsequent […].
On the other hand, the survival rate (%) of the control group of rats (untreated) was about 65% on Day 6 after the start of the test, and all rats had died on Day 22 after the start of the test.
The survival rate (%) of rats under test was evaluated by the following equation: [formula]

For assay [3], the system named is macrophages having infiltrated the inflammatory sites of Langerhans islets. As to the kind of experiment: Uptake of conventional PDT photosensitizers into macrophages in the pancreas of a mammal with IDDM. The note with it: no test described.
Where [4] appears, read: BB rats treated by the photodynamic therapy.

Take `C=Cc1c(C)c2cc3nc(c(CC(=O)N[C@@H](CC(=O)[O-])C(=O)[O-])c4[nH]c(cc5nc(cc1[nH]2)C(C)=C5CC)c(C)c4C(=O)[O-])[C@@H](CCC(=O)[O-])[C@@H]3C.[Na+].[Na+].[Na+].[Na+]` [mono-L-aspartyl chlorin e6]: the “uptake and accumulation of the administered photosensitizer (fluorescence image vs macrophage antibody staining)” value in assay [1] was “uptaken into and accumulated specifically in the macrophages having infiltrated the islets of Langerhans”. In assay [2] (setting [4]), the “blood sugar level compared with control group” value is listed as “blood sugar level had changed at slightly lower stages” and the “progress of Langerhans islet inflammation (pancreatic insulitis)” value is given as “pancreatic insulitis was suppressed by the PDT”. In assay [2] (BB rats treated by the photodynamic therapy vs control), the insulin production result is on record as “tendency to delay the disappearance of insulin production”.

For porfimer sodium, the “uptake into macrophages when each singly administered” value (from here on “uptake into macrophages”) in assay [3] was “selectively be uptaken by and into the macrophages”.

As for `C=Cc1c(C)c2cc3nc(c(CC(=O)O)c4[nH]c(cc5nc(cc1[nH]2)C(C)=C5CC)c(C)c4C(=O)O)[C@@H](CCC(=O)O)[C@@H]3C` [chlorin e6], the “uptake into macrophages” value in assay [3] was “selectively be uptaken by and into the macrophages”.

In the case of `CCOC(=O)C1=Cc2c3nc(cc4nc(cc5[n-]c(cc6[n-]c2c(C)c6CC)c(C)c5CC)C(C)=C4CC)[C@@H](C)[C@]13CC.[Cl-].[Cl-].[Sn]` (racemic) [rostaporfin], the “uptake into macrophages” value in assay [3] is “selectively be uptaken by and into the macrophages”.

As for `C=CC1=C(C)C2=CC3=C(/C=C/NO)C(C)(O)C(=CC4=NC(=CC5=NC(=CC1=N2)C(C)=C5CCC(=O)N[C@@H](CC(=O)[O-])C(=O)[O-])C(CCC(=O)N[C@@H](CC(=O)[O-])C(=O)[O-])=C4C)N3.[Na+].[Na+].[Na+].[Na+]` (stereo partly drawn) [ATX-S10], in assay [3], the “uptake into macrophages” value is “selectively be uptaken by and into the macrophages”.

For the compound “tetrasodium salt of mono-L-aspartyl chlorin e6”, in assay [2] (BB rats, 5 mg/kg i.v. plus 664-nm laser, all control rats had died on Day 22), the long-term survivors entry was “several rats surviving still after Day 35”. Besides, in assay [2] (BB rats, 5 mg/kg i.v., 24 h later 664-nm laser 50 J/cm^2, once), the “survival curve compared with untreated control group” value is “evident prolongation of their survival curve”. The “survival rate (%) on Day 6 after the start of the therapy” value in assay [2] (BB rats, 5 mg/kg i.v., 24 h later 664-nm laser 50 J/cm^2 transcutaneously, once, untreated control about 65%) was found to be 100%.

For the compound `CC(=O)[O-].CC(=O)[O-].CCc1c(CC)c2cc3nc(cnc4cc(OCCOCCOCCOC)c(OCCOCCOCCOC)cc4ncc4nc(cc1[n-]2)C(CCCO)=C4C)C(C)=C3CCCO.O.[Lu+3]` [motexafin lutetium], in assay [3], the “uptake into macrophages” value is “selectively be uptaken by and into the macrophages”.

For the origin of these results see US20030157026A1, “Photodynamic diagnosis and therapy for insulin-dependent diabetes mellitus” (priority 2001, published 2003).
